Test results as given in article PMC3724985, “Isolation, biochemical characterization, and cloning of a bacteriocin from the poultry-associated Staphylococcus aureus strain CH-91” (Applied Microbiology and Biotechnology, 2012).
Converted amounts (≈) assume the structure as drawn. “Also recorded” adds a separate entry of the source.

Assays:
Gram-negative strains = assay: MIC, micro-dilution method, Gram-negative strains as a group; format: cell-based; details: highest (maximal) concentration tested 100 μM, CLSI M7-A7, cation-adjusted MHB
Description: (§1) S. aureus CH-91 was kindly provided by S. Takeuchi from Fukui Prefectural University, Japan (Takeuchi et al. [1999]). The strain has been deposited in the DSMZ collection under the number DSM 26258. Bacillus licheniformis NCTC 7224, Bacillus subtilis ATCC 6633, Lactococcus lactis subsp. lactis LOCK 0869, Micrococcus luteus strains DSMZ 20030 and CBM (clinical isolate), Sarcina lutea ATCC 9341, S. aureus strains ATCC 25923, M-122 (Polakowska et al. [2012]), Newman and RN4220, S. epidermidis ATCC 35347, Staphylococcus intermedius ATCC 29666, Staphylococcus pseudintermedius LMG 22219 (Devriese et al. [2005]), Staphylococcus saprophyticus ATCC 49453, Staphylococcus xylosus strains isolated from the skin of healthy chickens, Streptococcus mutans ATCC 25175, Streptococcus pneumoniae ATCC 49619, Escherichia coli K12 ATCC 10798, Klebsiella pneumoniae, Serratia marcescens, and Sphingomonas sp. AMC 3962 (Dziga et al. [2012]) were obtained from the collections of The Faculty of Biochemistry, Biophysics and Biotechnology, Jagiellonian University, Krakow, Poland. […]
(§2) The bactericidal activity of BacCH91 was determined using the micro-dilution method in compliance with Clinical and Laboratory Standards Institute guidelines M7-A7 (CLSI [2006]). […] After overnight incubation at 37 °C, the optical density (OD) at 600 nm was measured. […]

[1] = format: physicochemical; details: 30 μM, radial diffusion assay, S. lutea
Protocol: (§3) To test the pH stability of BacCH91, a water solution of the bacteriocin (final concentration, 30 μM) was evaporated in a vacuum centrifuge and re-dissolved in (a) 100 mM sodium citrate pH 3.0, 4.0, 5.0, and 6.0; […] The solutions were incubated for 3 h at RT, and the residual activity of the bacteriocin was determined using the radial diffusion assay. The temperature stability of BacCH91 (30 μM final concentration) was determined in 50 mM Tris–HCl pH 7.4, 0.15 M NaCl and 50 mM bis-Tris pH 6.4, 0.15 M NaCl. The solutions were incubated for 1, 6, and 24 h at 37, 60, 80, and 99 °C. […] All of the above experiments were performed in triplicate. The final results are presented as means ± SD.

[2] = system: Staphylococcus intermedius ATCC 29663; format: cell-based
staphopain C (StpC) = details: 30 μM, 100 mM bis-Tris pH 6.4 or Tris–HCl pH 7.5 with 5 mM cysteine hydrochloride and 5 mM EDTA, 1:20 by weight, 1 h at 37 °C; radial diffusion assay and HPLC
Protocol: For pH, temperature, and protease resistance assays, the residual activity of BacCH91 was determined using the radial diffusion assay (Lemos Miguel et al. [2008]). In brief, plates were prepared containing 200× diluted overnight culture of S. lutea ATCC 9341 in TSB agar (1 %, w/v). Wells (2.4 mm diameter) were cut in the agar and filled with 10 μl of the BacCH91 preparation for testing. Following overnight incubation at 37 °C, the residual activity was measured as the diameter of inhibition zones.
We evaluated the susceptibility of BacCH91 to proteolysis by aureolysin; staphopains A, B, and C; V8 peptidase (Biocentrum); bovine alpha-chymotrypsin and TPCK-treated trypsin (Sigma); human elastase and cathepsin G (Biocentrum); pepsin from porcine gastric mucosa (Sigma); and proteinase K (A&A Biotechnology). […] The residual activity was determined with the radial diffusion assay using S. lutea as an indicator strain, and the bacteriocin molecule integrity was assessed using HPLC. […]

proteinase K = target: T1, proteinase K (Parengyodontium album, UniProt P06873); assay: Susceptibility to proteolysis, proteinase K; format: in vitro ADME; details: 30 μM, enzyme/bacteriocin 1:20 by weight, 1 h at 37 °C; radial diffusion assay and HPLC
T1 construct: purchased A&A Biotechnology
Protocol: All of the above experiments were performed in triplicate. The final results are presented as means ± SD.

Micrococcus luteus CBM = assay: MIC, micro-dilution method; format: cell-based; details: M. luteus CBM, CLSI M7-A7, cation-adjusted MHB
Description: as §1, §2

[3] = system: Micrococcus luteus DSMZ 20030; assay: MIC, micro-dilution method; format: cell-based; details: M. luteus DSMZ 20030, as printed in the text, CLSI M7-A7, cation-adjusted MHB
Description: as §1, §2

[4] = pH stability, residual activity by radial diffusion assay; format: physicochemical; details: 30 μM, S. lutea ATCC 9341, triplicate
Protocol: as §3

T1 sequence (P06873 106-384): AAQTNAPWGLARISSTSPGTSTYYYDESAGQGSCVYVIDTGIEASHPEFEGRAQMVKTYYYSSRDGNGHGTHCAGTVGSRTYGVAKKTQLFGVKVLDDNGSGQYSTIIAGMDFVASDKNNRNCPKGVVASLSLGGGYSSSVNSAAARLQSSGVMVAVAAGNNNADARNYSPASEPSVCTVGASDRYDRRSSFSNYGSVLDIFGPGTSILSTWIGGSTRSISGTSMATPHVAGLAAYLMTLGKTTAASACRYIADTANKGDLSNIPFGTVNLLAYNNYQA

In the case of C/C=C(\NC(=O)[C@H](CCCCN)NC(=O)CNC(=O)[C@@H]1CS[C@@H](C)[C@@H](NC(=O)[C@@H]2CSC[C@@H](NC(=O)/C(=C/C)NC(=O)[C@@H](N)[C@@H](C)CC)C(=O)N[C@@H](Cc3ccccc3)C(=O)N[C@@H]([C@@H](C)CC)C(=O)NCC(=O)N2)C(=O)N2CCC[C@H]2C(=O)NCC(=O)N1)C(=O)NCC(=O)N[C@@H]1CSC[C@@H]2NC(=O)[C@H](Cc3ccccc3)NC(=O)[C@@H](CS/C=C\NC2=O)NC(=O)[C@H](CC(N)=O)NC(=O)[C@H](Cc2ccccc2)NC1=O [BacCH91], the “susceptibility of Gram-negative strains to BacCH91” value (Gram-negative strains) is reported as “ineffective; also recorded: None of the Gram-negative species assayed were susceptible”, the “residual activity after 1 h at temperatures up to 80 °C” value ([1]; 50 mM Tris–HCl pH 7.4, 0.15 M NaCl and 50 mM bis-Tris pH 6.4, 0.15 M NaCl, 37, 60, 80 °C, 1 h, triplicate) is reported as “maintained its activity” and the “residual activity after several hours at temperatures higher than 60 °C” value ([1]; pH 6.4 and pH 7.4 buffers with 0.15 M NaCl, 6 and 24 h time points, triplicate) is reported as “complete inactivation”. The “activity retained during incubation for 1 h at 80 °C” value ([1]; pH 6.4 and pH 7.4 buffers with 0.15 M NaCl, 80 °C, 1 h) was about 100%, the “residual activity after short incubation at 99 °C” value ([1]; pH 6.4 and pH 7.4 buffers with 0.15 M NaCl, 99 °C, triplicate) was “complete inactivation” and the MIC [2] was 1.6 µM (≈ 3.32 µg/mL). The “effect of StpC on BacCH91” value (staphopain C (StpC)) was “not affected”, the “effect of proteinase K on BacCH91” value (proteinase K) was “unaffected” and the MIC (Micrococcus luteus CBM) was 40 nM (≈ 0.0831 µg/mL). For the same compound, the MIC [3] was 2.5 nM (≈ 0.00519 µg/mL), the “residual bactericidal activity after incubation at pH 11.0” value ([4]; 100 mM 3-cyclohexylamino-1-propanesulphonic acid-NaOH pH 11.0, 3 h at RT) was “complete inactivation” and the “residual bactericidal activity after incubation at pH 7.0 and higher” value ([4]; 100 mM Tris–HCl pH 7.0, 8.0, 9.0 and 100 mM CAPS-NaOH pH 10.0, 11.0, 3 h at RT) was “gradual loss of bactericidal activity”. The “residual bactericidal activity after incubation at pH 3.0–6.0” value ([4]; 100 mM sodium citrate pH 3.0, 4.0, 5.0, 6.0, 3 h at RT) was “retained full bactericidal activity”.
